From patent US6610657B1, “Alkyl peptide amides and applications” (Promega Corporation, priority 1996, dated 2003)
*: point of attachment. Stearyl = stearyl group; stearyl = stearyl group; sulfo = O=S(=O)(O)*

What was measured:
sperm = assay type: cell-based
Procedure: In the first such experiment, the vital dyes SYBR-green and rhodamine 123 were added to sperm before and after treatment with s-Ht31 in order to determine whether s-Ht31 affects sperm viability or structural integrity. Only viable, intact cells normally take up such dyes.

[1] = tested on: PKA in bovine caudal and caput sperm; assay: PKA activity of bovine caudal and caput sperm after treatment; assay type: cell-based; details: 50 μM
Procedure: PKA Activity. PKA activity was assayed as previously described (Carr et al., J. Biol. Chem. 268:20729-20732, 1993) with minor changes. Whole caput or caudal sperm were treated with 2-chloro-2′-deoxyadenosine (50 μM), H-89 (50 μM), or both for 30 min. at 37° C. The sperm were then washed twice in ice cold homogenization buffer supplemented with protease inhibitors, benzamidine (10 mM), leupeptin (4 μg/ml), and N-tosyl-L-phenylalanine chloromethyl ketone (TPCK) (100 μM), and sonicated for one min. Reaction mixtures (20 microliters (μl) total) contained 250 μM Kemptide (i.e., LRRASLG), 250 μM (γ^32P) ATP, 25 mM Na3VO4, 50 mM 3-[N-morpholino] propanesulfonic acid (MOPS) (pH=7.0), 10 mM MgCl2, 0.25 mg/ml BSA and where indicated, 10 μM cAMP. Assays were initiated by addition of labeled ATP, incubated for 2 min at 30° C., and stopped by addition of 30 μl of 1 N HCl. Twenty μl of the reaction was then spotted on phosphocellulose paper followed by three washes in 75 mM phosphoric acid. The papers were then analyzed by Cerenkov counting. All determinations were made in quadruplicate.
In previous reports, initiation or stimulation of sperm motility by CDA was associated with an elevation of cAMP and an increase in PKA activity was assumed (Vijayaraghavan and Hoskins, Biol. Reprod. 34:468-77, 1986). […] Bovine sperm were incubated as described for FIGS. 14 and 15 and then assessed for PKA activity. […]

[2] = tested on: bovine caudal epididymal sperm; assay: Bovine sperm motility (CASMA, forward motility index); assay type: cell-based
Procedure: (§1) Sperm Preparation. Testes from mature bulls with intact tunica were obtained from a local slaughterhouse and sperm from caput or caudal epididymis were isolated and washed as previously described (Vijayaraghavan et al., Biol. Reprod. 32:489-500, 1985). The sperm were resuspended in buffer A (120 mM NaCl, 10 mM KCl, 10 mM Tris[hydroxymethyl]aminomethane (TRIS), pH 7.4) supplemented with 10 mM glucose and 10 mg/ml bovine serum albumin (BSA) for motility measurements. Monkey semen was obtained by electro-ejaculation and processed by procedures previously reported (Smith et al., Biol. Reprod. 54:719-727, 1996). Human semen samples were obtained from a fertility clinic at the Oregon Health Sciences University.
(§2) Sperm Motility Measurement. Head motility parameters were determined as previously described (Vijayaraghavan et al., Biol. Reprod. 54:709-718, 1996; Stephens et al., Biol. Reprod. 38:577-586, 1988). A 3-4 μL aliquot of sperm suspension (5×10^7/ml) was loaded onto a counting chamber at 37° C. After bulk fluid movement had subsided, six different locations on the slide were recorded. The videotaped segments were analyzed by a computerized image-analysis system (CASMA) as previously described (Vijayaraghavan et al., Biol. Reprod. 54:709-718, 1996; Stephens et al., Biol. Reprod. 38:577-586, 1988). This computer system measured several parameters of head motion, including forward motility. The forward Motility Index (FMI) was used as the measure of motility. FMI is a product of percent motile (%M, percent of sperm moving at velocity greater than 20 mm/sec) and average velocity (Va, the five-point smoothed average of the head positions through analysis of at least twenty frames).

monkey ejaculated sperm = assay: Monkey sperm motility; assay type: cell-based, rhesus monkey; details: increasing concentrations in neat semen, 37° C., 5 and 30 min, FIG. 11
Procedure: as §1
as §2, with “The forward Motility Index (FMI) was used as the measure of motility. FMI is a product of percent motile (%M, percent of sperm moving at velocity greater than 20 mm/sec) and average velocity (Va, the five-point smoothed average of the head positions through analysis of at least twenty frames).” left out

alkaline phosphatase = details: cited from earlier work
PP-1 = PP-1 (Homo sapiens, UniProt P62136); details: cited from earlier work
PP-2A = PP-2A (Homo sapiens, UniProt P67775); details: cited from earlier work
insulin receptor = details: intact CHO/HIRc cells; cited from earlier work
RII binding to AKAP 110 = assay: RII overlay assay on bovine sperm AKAP; details: 20 μM peptide, densitometric scanning, FIG. 6
Text: Western blotting and overlay assays. The overlay procedure is a modified Western blot procedure. Proteins were separated by SDS-polyacrylamide gel electrophoresis (SDS-PAGE) and transferred to a nylon membrane (Immobilon). After treatment with Blotto (Protein Methods, Bollag and Edelstein, eds., Wiley-Liss, New York, 1991) to prevent non-specific binding, radiolabelled RIIα or RIIβ probes were applied (Carr and Scott, Trends Biochem. Sci. 17:246-249, 1992). Recombinant RIIα was produced as previously described (Carr et al., J. Biol. Chem. 266:14188-14192, 1991; Carr et al., J. Biol. Chem. 267:13376-13382, 1992). RIIα and RIIβ were gifts from Dr. John Scott, Oregon Health Sciences University, Portland, Oreg. Two different variations of the overlay assay were used. In the first variation, recombinant RII radiolabeled by incubation with the catalytic subunit of PKA and γ^32P-ATP was used. After separation from free γ^32P-ATP, the ^32P-labeled RII (500,000 CPM/10 ml blotto) was incubated with the blocked blot for four hours followed by washing and autoradiography. […]
RII overlays were performed in the absence (lane 1) or presence of 20 μM Ht31, s-Ht31, or s-Ht31-P (lanes 2, 3 or 4, respectively). Addition of the three peptide species inhibited RII binding to AKAP110 by 100%, 85% and 0%, respectively, as determined by densitometric scanning analysis.

[3] = biological target: RII, 32P-labeled recombinant regulatory subunit of PKA (isoform not given) used as overlay probe; assay: RII overlay of bovine sperm blot with 20 µM peptide, densitometric scanning
[4] = biological target: endogenous RII isoforms of sperm (bands at about 55 kDa); assay: cell-based or functional assay

PP-2A, sequence (P67775 whole entry): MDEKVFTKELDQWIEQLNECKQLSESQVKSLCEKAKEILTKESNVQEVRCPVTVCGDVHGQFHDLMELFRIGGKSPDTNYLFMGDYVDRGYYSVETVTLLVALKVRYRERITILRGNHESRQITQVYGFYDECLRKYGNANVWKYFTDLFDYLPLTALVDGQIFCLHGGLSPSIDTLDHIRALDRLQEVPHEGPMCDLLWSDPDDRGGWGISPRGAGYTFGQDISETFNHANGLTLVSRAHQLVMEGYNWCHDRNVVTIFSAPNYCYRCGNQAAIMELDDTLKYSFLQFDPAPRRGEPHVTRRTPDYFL
PP-1, sequence (P62136 whole entry): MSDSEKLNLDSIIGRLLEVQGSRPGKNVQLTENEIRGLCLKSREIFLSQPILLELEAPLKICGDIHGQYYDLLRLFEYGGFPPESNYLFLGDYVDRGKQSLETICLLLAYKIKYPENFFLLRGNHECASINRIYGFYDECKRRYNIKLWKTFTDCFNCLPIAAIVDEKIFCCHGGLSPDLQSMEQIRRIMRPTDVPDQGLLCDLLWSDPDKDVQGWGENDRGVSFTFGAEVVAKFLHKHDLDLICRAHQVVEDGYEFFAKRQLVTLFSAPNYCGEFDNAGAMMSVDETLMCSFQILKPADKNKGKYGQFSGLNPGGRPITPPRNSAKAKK

**Q.** Which “Release of BCECF or Fura 2 from loaded sperm” value (sperm) does the source give for `C[C@@H]1CC[C@@]2(OC1)O[C@H]1[C@@H](O)[C@H]3[C@@H]4CC[C@H]5C[C@@H](O[C@@H]6O[C@H](CO)[C@H](O[C@@H]7O[C@H](CO)[C@@H](O)[C@H](O[C@@H]8OC[C@@H](O)[C@H](O)[C@H]8O)[C@H]7O[C@@H]7O[C@H](CO)[C@H](O)[C@H](O[C@@H]8O[C@H](CO)[C@@H](O)[C@H](O)[C@H]8O)[C@H]7O)[C@H](O)[C@H]6O)[C@H](O)C[C@]5(C)[C@H]4CC[C@]3(C)[C@H]1[C@@H]2C` [digitonin] here?
**A.** Its value is “caused release of these dyes”.

**Q.** For `Nc1nc(Cl)nc2c1ncn2[C@H]1C[C@H](O)[C@@H](CO)O1` [CDA, 2-chloro-2′-deoxyadenosine], which “Increase of basal PKA activity” value ([1]; 30 min at 37° C., both caudal and caput sperm) is on record?
**A.** Its value is “approximately 60%”.

**Q.** What does the source list for `CCCCCCCCCCCCCCCCCC(=O)N[C@@H](CC(=O)O)C(=O)N[C@@H](CC(C)C)C(=O)N[C@H](C(=O)N[C@@H](CCC(=O)O)C(=O)N[C@@H](CCC(=O)O)C(=O)N[C@@H](C)C(=O)N[C@@H](C)C(=O)N[C@@H](CO)C(=O)N[C@@H](CCCNC(=N)N)C(=O)N[C@H](C(=O)N[C@H](C(=O)N[C@@H](CC(=O)O)C(=O)N[C@@H](C)C(=O)N[C@H](C(=O)N[C@H](C(=O)N[C@@H](CCC(=O)O)C(=O)N[C@@H](CCC(N)=O)C(=O)N[C@H](C(=O)N[C@@H](CCCCN)C(=O)N[C@@H](C)C(=O)N[C@@H](C)C(=O)NCC(=O)N[C@@H](C)C(=O)N[C@@H](Cc1ccc(O)cc1)C(=O)O)C(C)C)[C@@H](C)CC)C(C)C)C(C)C)[C@@H](C)CC)[C@@H](C)CC` [s-Ht31]?
**A.** Effect on sperm viability / plasma membrane integrity (uptake of SYBR-green and rhodamine 123) (sperm): did not decrease viability or disrupt the integrity of the sperm plasma membrane; Release of BCECF or Fura 2 from loaded sperm (sperm): did not compromise the integrity of the plasma membrane

**Q.** With “Stearyl-DLIEEAASRPVDAVPEQVKAAGAY amide (Stearyl-DLIEEAASRPVDAVPEQVKAAGAY-NH2; listed as Homo sapiens) [s-Ht31-P]” as the molecule, how does the “Effect on sperm motility” value ([2]; concentrations up to 20 μM, 5 min) read?
**A.** The value was “no effect”.

**Q.** Which “Effect on motility of monkey-ejaculate sperm” value (monkey ejaculated sperm) does the source give for “Stearyl-YETLLIETASSLVKNAIQLSIE amide (Stearyl-YETLLIETASSLVKNAIQLSIE-NH2; listed as Homo sapiens) [s-AKAP79]” here?
**A.** Its value is “inhibited sperm motility in a concentration- and time-dependent manner”.

**Q.** For “TRDIYETDYYRK-amide (Stearyl-TRDIY(sulfo)ETDY(sulfo)Y(sulfo)RK-NH2; not fully specified; printed as TRDIYETDYYRK-amide; listed as Homo sapiens)”, which “Effect on activity of alkaline phosphatase” value (alkaline phosphatase) is on record?
**A.** Its value is “did not have an effect”.

**Q.** And the “Effect on activity of PP-1” value (PP-1)?
**A.** The value was “did not have an effect”.

**Q.** And the “Effect on activity of PP-2A” value (PP-2A)?
**A.** The value was “did not have an effect”.

**Q.** And the “Increase in insulin-stimulated receptor autophosphorylation” value (insulin receptor)?
**A.** Its value is 4.5 fold.

**Q.** For `O=S(=O)(NCCNCC=Cc1ccc(Br)cc1)c1cccc2cnccc12` [H-89, N-[2-(p-bromocinnamylamino)ethyl]-5-isoquinoline-sulfonamide], which “Effect on PKA activity of treated sperm” value ([1]; in the presence or absence of CDA, sperm washed before lysis) is on record?
**A.** The value was “strongly inhibited PKA activity”.

**Q.** And the “Effect on sperm motility stimulated by CDA” value ([2]; 50 μM H-89 added 15 min prior to 50 μM CDA)?
**A.** Its value is “no effect”.

**Q.** And the inhibition at 50 µM ([2]; Bos taurus, Sperm, 0.25 h, 50 μM, 15 min, FIG. 14, read-out: Inhibition of basal sperm motility)?
**A.** Its inhibition at 50 µM is ≤ 50%.

**Q.** For “DLIEEAASRIVDAVIEQVKAAGAY (listed as Homo sapiens) [Ht31]”, which “Inhibition of RII binding to AKAP110” value (RII binding to AKAP 110) is on record?
**A.** The value was 100%.

B1: s-Ht31-P: Stearyl-… amide (peptide)
peptide: stearyl-DLIEEAASRPVDAVPEQVKAAGAY-NH2
**Q.** For B1, which percent inhibition of RII binding to AKAP110 [3] is on record?
**A.** Its percent inhibition of RII binding to AKAP110 is 0%.

B2: Ht31 (anchor inhibiting peptide, non-stearated) (peptide)
peptide: DLIEEAASRIVDAVIEQVKAAGAY
**Q.** For B2, which percent inhibition of RII binding to AKAP110 [3] is on record?
**A.** The percent inhibition of RII binding to AKAP110 was 100%.

B3: s-Ht31: Stearyl-… amide (peptide)
peptide: Stearyl-DLIEEAASRIVDAVIEQVKAAGAY-NH2
modifications: not fully specified
**Q.** What does the source list for B3?
**A.** concentration of s-Ht31 needed to produce 50% inhibition of bovine sperm motility, five minutes post-treatment [4]: 1 µM; percent inhibition of RII binding to AKAP110 [3]: 85%
